Test results from US9012489B2, “Phenyl-3-aza-bicyclo[3.1.0]hex-3-yl-methanones and the use thereof as medicament” (Boehringer Ingelheim International GmbH, priority 2011, dated 2015).

Biological target: T1, GlyT1 transporter (Homo sapiens, UniProt P48067)
T1 construct: endogenously expressing the GlyT1 transporter; host or cells: SK-N-MC human neuroblastoma cells
T1 sequence (P48067 1-706): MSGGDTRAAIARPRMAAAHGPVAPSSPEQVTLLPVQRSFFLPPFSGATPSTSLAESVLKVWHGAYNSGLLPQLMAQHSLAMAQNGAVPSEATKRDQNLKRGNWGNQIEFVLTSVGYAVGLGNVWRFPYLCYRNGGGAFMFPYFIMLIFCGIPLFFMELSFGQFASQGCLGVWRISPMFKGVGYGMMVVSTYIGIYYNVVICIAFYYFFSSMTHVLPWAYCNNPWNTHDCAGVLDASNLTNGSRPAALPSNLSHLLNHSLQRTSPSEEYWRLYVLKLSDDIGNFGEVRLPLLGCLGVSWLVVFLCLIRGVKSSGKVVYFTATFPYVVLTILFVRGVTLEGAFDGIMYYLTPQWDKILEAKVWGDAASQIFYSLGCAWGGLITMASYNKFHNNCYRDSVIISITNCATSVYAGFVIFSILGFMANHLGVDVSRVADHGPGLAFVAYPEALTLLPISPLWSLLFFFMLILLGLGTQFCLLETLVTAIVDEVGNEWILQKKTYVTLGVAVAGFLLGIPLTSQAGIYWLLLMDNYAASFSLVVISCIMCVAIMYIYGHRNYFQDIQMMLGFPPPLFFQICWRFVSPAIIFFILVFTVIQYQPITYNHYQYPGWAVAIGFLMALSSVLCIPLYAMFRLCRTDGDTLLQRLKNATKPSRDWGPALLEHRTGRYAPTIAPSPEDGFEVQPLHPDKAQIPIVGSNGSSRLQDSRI
Assay: GlyT1 assay: 3H-glycine uptake into SK-N-MC cells (Cytostar-T format)
Assay type: cell-based
Conditions: glycine uptake in human SK-N-MC cells endogenously expressing GlyT1; 500 nM glycine, 1% DMSO, signal recorded over 60 min
Text: Cells expressing either endogenously the GlyT1 transporter like JAR cells (human placental choriocarcinoma cells; e.g. WO 2008/002583) or SK-N-MC cells (human neuroblastoma cells; Depoortere et al., 2005. Neuropsychopharmacology 30:1963-1985) or primary neurons or cells which have been transfected with a plasmid encoding the cDNA of a functional GlyT1 transporter and stably or transiently express GlyT1 (e.g. WO 2006/08200) can be used to monitor glycine uptake in cells. Different protocols for determination of the glycine uptake into the cells described above can be applied in order to identify and rank compounds which interfere with glycine uptake in the selected cell.
Compounds outlined in the examples below were characterized using human SK-N-MC cells (ATCC number HTB-10) endogenously expressing the GlyT1 transporter which is responsible for the uptake of glycine into these cells and the uptake of glycine into these cells is monitored using the Cytostar-T assay format (GE Healthcare, RPNQ0162) which is based on the radioactive glycine taken up by the cells and brought into proximity with the scintillant contained within the base of the plate. The radioactive decay is converted to a light signal based on the integration of the scintillation matrix into the assay plate. The uptake is recorded as kinetic and the slope of the measured counts over time is used to calculate IC50.
In detail, SK-N-MC cells are seeded into 96-well Cytostar-T assay plates at a density of 200,000 cells/well and grown for 16-18 hours to confluence in growth medium as recommended by ATCC. Before starting the assay, cells are washed once with HBSS (Hank's buffered salt solution; Sigma, H8264) cont. 5 mM alanine (referred in here as HBSS/Ala) and afterwards the following reagents are added: • 1. 80 μl/well HBSS/Ala • 2. 20 μl/well of HBSS/Ala containing 6× the concentration of compound in 6% DMSO • 3. approx. 5-10 min incubation • 4. 20 μl/well 3 μM glycine (^3H-glycine (Perkin Elmer, NET004001MC, specific activity: 52 Ci/mmol; diluted 1:1 with unlabelled glycine) in HBSS/Ala.
In the final assay, glycine concentration is 500 nM (250 nM derived from the ^3H-glycine Perkin Elmer, 250 nM unlabelled glycine), DMSO concentration is 1%.
The assay plate is immediately after addition of the ^3H-glycine placed into a Micro-Beta Counter (Perkin Elmer) and the signal is recorded over 60 min.
To calculate uptake, the slope in the linear range of the kinetics is determined using GraphPadPrism and for the different slopes at the selected concentrations IC50 are calculated by curve fitting using the software GraphPadPrism.
Maximal glycine uptake in every experiment is determined by incubation of SK-N-MC cells with substrate but without inhibitor. Unspecific uptake of glycine by the cells is determined by incubating the cells with substrate and a reference GlyT1 inhibitor e.g. 10 μM RG-1678 (Pinard et al., 2010, J. Med. Chem. 53(12):4603-14).
Compounds are diluted from 10 mM stocks and in general, for IC50 determination 8 compound concentrations are used.

Row | Compound | IC50 [nM]
1 | C[C@@H](Oc1ccc(S(C)(=O)=O)cc1C(=O)N1CC2CC2(c2nc(C(F)(F)F)no2)C1)C(F)(F)F (single isomer, unassigned) [Example 86, [5-Methanesulfonyl-2-(2,2,2-trifluoro-1-methyl-ethoxy)-phenyl]-[1-(3-trifluoromethyl-[1,2,4]oxadiazol-5-yl)-3-aza-bicyclo[3.1.0]hex-3-yl]-methanone] | 20
2 | C[C@H](Oc1ccc(S(C)(=O)=O)cc1C(=O)N1CC2CC2(c2noc(C3CC(F)(F)C3)n2)C1)C(F)(F)F (single isomer, unassigned) [Example 59] | 8
3 | C[C@H](Oc1ccc(S(C)(=O)=O)cc1C(=O)N1CC2CC2(c2noc(CC(F)(F)F)n2)C1)C(F)(F)F (mixture of isomers) [Example 61, [5-Methanesulfonyl-2-(2,2,2-trifluoro-1-methyl-ethoxy)-phenyl]-{1-[5-(2,2,2-trifluoro-ethyl)-[1,2,4]oxadiazol-3-yl]-3-aza-bicyclo[3.1.0]hex-3-yl}-methanone] | 8
4 | CCS(=O)(=O)c1ccc(O[C@@H](C)C(F)(F)F)c(C(=O)N2CC3CC3(c3nccc(C(F)(F)F)n3)C2)c1 (mixture of isomers) [Example 73, [5-Ethanesulfonyl-2-(2,2,2-trifluoro-1-methyl-ethoxy)-phenyl]-[1-(4-trifluoromethyl-pyrimidin-2-yl)-3-aza-bicyclo[3.1.0]hex-3-yl]-methanone] | 9
5 | C[C@@H](Oc1ccc(S(C)(=O)=O)cc1C(=O)N1CC2CC2(c2noc(C3(C(F)(F)F)CC3)n2)C1)C(F)(F)F (mixture of isomers) [Example 68, [5-Methanesulfonyl-2-(2,2,2-trifluoro-1-methyl-ethoxy)-phenyl]-{1-[5-(1-trifluoromethyl-cyclopropyl)-[1,2,4]oxadiazol-3-yl]-3-aza-bicyclo[3.1.0]hex-3-yl}-methanone] | 7
6 | C[C@H](Oc1ccc(S(C)(=O)=O)cc1C(=O)N1CC2CC2(c2cccc(C(F)(F)F)n2)C1)C(F)(F)F (single isomer, unassigned) [Example 55, [5-Methanesulfonyl-2-(2,2,2-trifluoro-1-methyl-ethoxy)-phenyl]-[1-(6-trifluoromethyl-pyridin-2-yl)-3-aza-bicyclo[3.1.0]hex-3-yl]-methanone] | 22
7 | C[C@H](Oc1ccc(S(C)(=O)=O)cc1C(=O)N1CC2CC2(c2nc(C(F)(F)F)no2)C1)C(F)(F)F (mixture of isomers) [Example 36, [5-Methanesulfonyl-2-(2,2,2-trifluoro-1-methyl-ethoxy)-phenyl]-[1-(3-trifluoromethyl-[1,2,4]oxadiazol-5-yl)-3-aza-bicyclo[3.1.0]hex-3-yl]-methanone] | 62

Continued, values first:

Row | IC50 [nM] | Compound
8 | 1200 | C[C@H](Oc1ccc(S(C)(=O)=O)cc1C(=O)N1CC2CC2(c2nnc(C3(C(F)(F)F)CC3)o2)C1)C(F)(F)F (single isomer, unassigned) [Example 153, [5-Methanesulfonyl-2-(2,2,2-trifluoro-1-methyl-ethoxy)-phenyl]-{1-[5-(1-trifluoromethyl-cyclopropyl)-[1,3,4]oxadiazol-2-yl]-3-aza-bicyclo[3.1.0]hex-3-yl}-methanone]
9 | 7 | C[C@H](Oc1ccc(S(C)(=O)=O)cc1C(=O)N1CC2CC2(c2nc(C3CC3)no2)C1)C(F)(F)F (single isomer, unassigned) [Example 143, [1-(3-Cyclopropyl-[1,2,4]oxadiazol-5-yl)-3-aza-bicyclo[3.1.0]hex-3-yl]-[5-methanesulfonyl-2-(2,2,2-trifluoro-1-methyl-ethoxy)-phenyl]-methanone]
10 | 292 | CCS(=O)(=O)c1ccc(O[C@@H](C)C(F)(F)F)c(C(=O)N2CC3CC3(c3cc(C(F)(F)F)on3)C2)c1 (single isomer, unassigned) [Example 104, [5-Ethanesulfonyl-2-(2,2,2-trifluoro-1-methyl-ethoxy)-phenyl]-[1-(5-trifluoromethyl-isoxazol-3-yl)-3-aza-bicyclo[3.1.0]hex-3-yl]-methanone]
11 | 164 | C[C@H](Oc1ccc(S(C)(=O)=O)cc1C(=O)N1CC2CC2(c2nc(C3CC3)no2)C1)C(F)(F)F (single isomer, unassigned) [Example 144, [1-(3-Cyclopropyl-[1,2,4]oxadiazol-5-yl)-3-aza-bicyclo[3.1.0]hex-3-yl]-[5-methanesulfonyl-2-(2,2,2-trifluoro-1-methyl-ethoxy)-phenyl]-methanone]
12 | 7 | C[C@@H](Oc1ccc(S(C)(=O)=O)cc1C(=O)N1CC2CC2(c2noc(C3(C)CC3)n2)C1)C(F)(F)F (mixture of isomers) [Example 135, [5-Methanesulfonyl-2-(2,2,2-trifluoro-1-methyl-ethoxy)-phenyl]-{1-[5-(1-methyl-cyclopropyl)-[1,2,4]oxadiazol-3-yl]-3-aza-bicyclo[3.1.0]hex-3-yl}-methanone]
13 | 45 | C[C@H](Oc1ccc(S(C)(=O)=O)cc1C(=O)N1CC2CC2(c2nocc2C(F)(F)F)C1)C(F)(F)F (mixture of isomers) [Example 109, [5-Methanesulfonyl-2-(2,2,2-trifluoro-1-methyl-ethoxy)-phenyl]-[1-(4-trifluoromethyl-isoxazol-3-yl)-3-aza-bicyclo[3.1.0]hex-3-yl]-methanone]
14 | 764 | CS(=O)(=O)c1ccc(-n2ccc(C(F)(F)F)n2)c(C(=O)N2CC3CC3(c3noc(C(F)(F)F)n3)C2)c1 (racemic) [Example 141, [5-Methanesulfonyl-2-(3-trifluoromethyl-pyrazol-1-yl)-phenyl]-[1-(5-trifluoromethyl-[1,2,4]oxadiazol-3-yl)-3-aza-bicyclo[3.1.0]hex-3-yl]-methanone]
15 | 394 | Cc1c(C23CC2CN(C(=O)c2cc(S(C)(=O)=O)ccc2O[C@@H](C)C(F)(F)F)C3)noc1C(F)(F)F (single isomer, unassigned) [Example 165]
16 | 18 | CCS(=O)(=O)c1ccc(O[C@@H](C)C(F)(F)F)c(C(=O)N2CC3CC3(c3cc(C(F)(F)F)on3)C2)c1 (mixture of isomers) [Example 102, [5-Ethanesulfonyl-2-(2,2,2-trifluoro-1-methyl-ethoxy)-phenyl]-[1-(5-trifluoromethyl-isoxazol-3-yl)-3-aza-bicyclo[3.1.0]hex-3-yl]-methanone]
17 | 953 | C[C@H](Oc1ccc(S(C)(=O)=O)cc1C(=O)N1CC2(C)CC2(c2noc(C(F)(F)F)n2)C1)C(F)(F)F (single isomer, unassigned) [Example 159, [5-Methanesulfonyl-2-(2,2,2-trifluoro-1-methyl-ethoxy)-phenyl]-[1-methyl-5-(5-trifluoromethyl-[1,2,4]oxadiazol-3-yl)-3-aza-bicyclo[3.1.0]hex-3-yl]-methanone]
18 | 10 | C[C@H](Oc1ccc(S(C)(=O)=O)cc1C(=O)N1CC2CC2(c2nnc(C3(C(F)(F)F)CC3)o2)C1)C(F)(F)F (single isomer, unassigned) [Example 152, [5-Methanesulfonyl-2-(2,2,2-trifluoro-1-methyl-ethoxy)-phenyl]-{1-[5-(1-trifluoromethyl-cyclopropyl)-[1,3,4]oxadiazol-2-yl]-3-aza-bicyclo[3.1.0]hex-3-yl}-methanone]
